According to patent publication US20260015360A1 (MOMA Therapeutics, Inc., priority 2023, published 2026):
pIC50: −log10 of the molar value.

Experiments:
DLD1 WT cells = experiment: DLD1 viability assay (CellTiter-Glo, 7 days), DLD1 WT; type: cell-based; conditions: Homo sapiens, DLD-1, 168 h
DLD1 BRCA2 (−/−) cells = experiment: DLD1 viability assay (CellTiter-Glo, 7 days), DLD1 BRCA2 (−/−); type: cell-based; conditions: Homo sapiens, DLD-1, 168 h, read-out: Viability IC50 (μM) DLD1 BRCA2 null
[1] = molecular target: T1, biotinylated Avi-POLΘ[2-894] (Homo sapiens, UniProt O75417); experiment: ATPase assay (ADP-Glo): POLΘ-mediated ATP hydrolysis; conditions: read-out: Biochemical ATPase ADPGlo IC50
T1 construct: 1 nM biotinylated Avi-POLΘ[2-894]
T1 sequence (O75417 2-894 limits assumed): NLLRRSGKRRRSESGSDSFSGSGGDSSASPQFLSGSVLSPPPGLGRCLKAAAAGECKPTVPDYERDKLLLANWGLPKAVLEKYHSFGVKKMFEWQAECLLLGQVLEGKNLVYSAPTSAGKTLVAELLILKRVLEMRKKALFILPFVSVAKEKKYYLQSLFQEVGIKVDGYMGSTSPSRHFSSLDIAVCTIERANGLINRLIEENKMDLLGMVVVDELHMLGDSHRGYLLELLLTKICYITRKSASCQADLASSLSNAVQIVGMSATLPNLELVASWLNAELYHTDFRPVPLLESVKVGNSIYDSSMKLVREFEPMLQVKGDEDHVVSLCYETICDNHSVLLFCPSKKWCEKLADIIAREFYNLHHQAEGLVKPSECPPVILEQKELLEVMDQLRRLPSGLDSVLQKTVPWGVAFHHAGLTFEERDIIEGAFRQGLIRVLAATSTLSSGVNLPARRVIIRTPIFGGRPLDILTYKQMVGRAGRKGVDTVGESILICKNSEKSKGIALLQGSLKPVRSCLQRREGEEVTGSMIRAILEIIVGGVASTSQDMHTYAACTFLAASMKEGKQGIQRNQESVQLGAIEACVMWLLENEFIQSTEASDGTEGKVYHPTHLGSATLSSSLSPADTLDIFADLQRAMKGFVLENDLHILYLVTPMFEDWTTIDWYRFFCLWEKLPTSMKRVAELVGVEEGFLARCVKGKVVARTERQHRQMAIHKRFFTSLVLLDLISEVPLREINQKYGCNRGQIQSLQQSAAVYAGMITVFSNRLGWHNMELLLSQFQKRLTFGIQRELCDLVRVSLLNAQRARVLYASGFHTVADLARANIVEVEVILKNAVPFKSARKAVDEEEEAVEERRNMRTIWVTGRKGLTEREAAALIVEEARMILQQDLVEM

IC50 (DLD1 WT cells) [µM] | IC50 (DLD1 BRCA2 (−/−) cells) [µM] | pIC50 [1] | Compound
> 10 | 0.001 to 0.1 | 7.82 to 9.00 | COc1cnc(Cl)cc1-c1cc(C)ncc1C(=O)Nc1nc2ncc(N3CCC(CO)CC3)nc2s1 [Example 506, 2′-chloro-N-(6-(4-(hydroxymethyl)piperidin-1-yl)thiazolo[4,5-b]pyrazin-2-yl)-5′-methoxy-6-methyl-[4,4′-bipyridine]-3-carboxamide]
> 10 | 0.1 to 0.25 | 7.82 to 9.00 | COc1nc2c(cc1-c1cc(C)ncc1C(=O)Nc1nc3ncc(-c4ccncc4)nc3s1)OCCN2C [Example 507, 4-(6-methoxy-4-methyl-3,4-dihydro-2H-pyrido[3,2-b][1,4]oxazin-7-yl)-6-methyl-N-(6-(pyridin-4-yl)thiazolo[4,5-b]pyrazin-2-yl)nicotinamide]
> 10 | 0.001 to 0.1 | 7.82 to 9.00 | COc1cnc(Cl)cc1-c1cc(C)ncc1C(=O)Nc1nc2ncc(N3CCC(C)(O)CC3)nc2s1 [Example 509, 2′-chloro-N-(6-(4-hydroxy-4-methylpiperidin-1-yl)thiazolo[4,5-b]pyrazin-2-yl)-5′-methoxy-6-methyl-[4,4′-bipyridine]-3-carboxamide]
2.5 to 5 | 0.001 to 0.1 | 7.82 to 9.00 | COc1cnc(Cl)cc1-c1cc(C)ncc1C(=O)Nc1nc2ncc(N3CCC(O)(C(F)(F)F)CC3)nc2s1 [Example 511, 2′-chloro-N-(6-(4-hydroxy-4-(trifluoromethyl)piperidin-1-yl)thiazolo[4,5-b]pyrazin-2-yl)-5′-methoxy-6-methyl-[4,4′-bipyridine]-3-carboxamide]
> 10 | 0.001 to 0.1 | 7.82 to 9.00 | COc1cnc(Cl)cc1-c1cc(C)ncc1C(=O)Nc1nc2ncc(C3CCOCC3)nc2s1 [Example 512, 2′-chloro-5′-methoxy-6-methyl-N-(6-(tetrahydro-2H-pyran-4-yl)thiazolo[4,5-b]pyrazin-2-yl)-[4,4′-bipyridine]-3-carboxamide]
> 10 | 0.001 to 0.1 | 7.82 to 9.00 | COc1cnc(Cl)cc1-c1cc(C)ncc1C(=O)Nc1nc2ncc(N3CCC(OC)CC3)nc2s1 [Example 514, 2′-chloro-5′-methoxy-N-(6-(4-methoxypiperidin-1-yl)thiazolo[4,5-b]pyrazin-2-yl)-6-methyl-[4,4′-bipyridine]-3-carboxamide]
